Results as given in patent US20200017913A1, “METHODS AND SYSTEMS FOR PREDICTING TREATMENT RESPONSES IN SUBJECTS” (PRESIDENT AND FELLOWS OF HARVARD COLLEGE, priority 2017, published 2020).

The molecules below were run on pancolitis in Patient #2 (assay: Clinical treatment course of Patient #2 with pancolitis). Details: Patient #2, pancolitis flare, conventional therapies.
Format: in vivo, human
Description: Patient #2 was evaluated by a general intestinal doctor […] to receive treatment for bloody stool. […]
This included a glucocorticoid stress dose and a vancomycin treatment.
At that point, the tissue obtained in the most recent colonoscopic biospy was gene expression (RNA) profiled according to an exemplary methodology of the present disclosure. […] In this case, the drug was indigo, an over the counter supplement, also known as Qing Dai.

SMILES	clinical response to treatment
Sc1ncnc2nc[nH]c12 [6-mercaptopurine]	no improvement after 3 months
CO[C@H]1/C=C/O[C@@]2(C)Oc3c(C)c(O)c4c(O)c(c5c(nc6cc(C)ccn65)c4c3C2=O)NC(=O)/C(C)=C\C=C\[C@H](C)[C@H](O)[C@@H](C)[C@@H](O)[C@@H](C)[C@H](OC(C)=O)[C@@H]1C [Rifaximin]	transient improvement for a couple weeks
C=CC[C@@H]1/C=C(\C)C[C@H](C)C[C@H](OC)[C@H]2O[C@@](O)(C(=O)C(=O)N3CCCC[C@H]3C(=O)O[C@H](/C(C)=C/[C@@H]3CC[C@@H](O)[C@H](OC)C3)[C@H](C)[C@@H](O)CC1=O)[C@H](C)C[C@@H]2OC [tacrolimus]	mild improvement but no remission
CN[C@H](CC(C)C)C(=O)N[C@H]1C(=O)N[C@@H](CC(N)=O)C(=O)N[C@H]2C(=O)N[C@H]3C(=O)N[C@H](C(=O)N[C@H](C(=O)O)c4cc(O)cc(O)c4-c4cc3ccc4O)[C@H](O)c3ccc(c(Cl)c3)Oc3cc2cc(c3O[C@@H]2O[C@H](CO)[C@@H](O)[C@H](O)[C@H]2O[C@H]2C[C@](C)(N)[C@H](O)[C@H](C)O2)Oc2ccc(cc2Cl)[C@H]1O [vancomycin]	transient effect that lasted about a week
